This is an account of results in patent publication US10538554B2, “Peptides and uses therefor as antiviral agents” (priority 2015, dated 2020).

Bridge positions count the residues as written; N and C are the ends. Square brackets hold non-standard residues; d marks the D form. Peptide text beside a SMILES is read from it.

The % Inhibition is the share of the control response that was lost under treatment.

The first test has as its system H3N8 A/Miami/2/63. Conditions: A/Miami/2/63, 48 h, 500 μM.
For `CC[C@@H](C)[C@H]1NC(=O)[C@@H](Cc2ccccc2)NC(=O)[C@@H](CCCNC(=N)N)NC(=O)[C@@H](CO)NC(=O)[C@@H](CS)NC(=O)[C@@H]([C@H](C)O)NC(=O)[C@H](NC(=O)[C@@H](CCCCN)NC(=O)[C@@H](CCCCN)NC(=O)[C@@H](CCCNC(=N)N)NC(=O)[C@H](N)CCCNC(=N)N)CSSC[C@H](C(=O)O)NC(=O)[C@@H](CC(N)=O)NC1=O` [PSP II A2, H-rrkkctcsrfinc-OH] (H-[dR][dR][dK][dK][dC][dT][dC][dS][dR][dF][dI][dN][dC]-OH; disulfide 5-13), the “% inhibition H3N8” value is 44.4%.

Take `CSCC[C@H]1NC(=O)[C@@H](Cc2ccccc2)NC(=O)[C@@H](CCCNC(=N)N)NC(=O)[C@@H](CO)NC(=O)[C@@H](CCCCN)NC(=O)[C@@H]([C@H](C)O)NC(=O)[C@H](N)CSSC[C@H](C(=O)O)NC(=O)[C@@H](CC(N)=O)NC1=O` [PSP 11, H-ctksrfmnc-OH] (H-[dC][dT][dK][dS][dR][dF][dM][dN][dC]-OH; disulfide 1-9): the “% inhibition H3N8” value was 67%.

The subject of the next test is H1N1 A1/Malaysia/302/1954. The note with it: A1/Malaysia/302/1954, 48 h, 1 μM.
Take `CC[C@@H](C)[C@H]1NC(=O)[C@@H](C)NC(=O)[C@@H]([C@H](C)O)NC(=O)[C@@H](Cc2ccccc2)NC(=O)[C@@H](Cc2c[nH]c3ccccc23)NC(=O)[C@@H](Cc2c[nH]c3ccccc23)NC(=O)[C@H](NC(=O)[C@H](CCCCN)NC(=O)[C@H](CCCCN)NC(=O)[C@H](CCCNC(=N)N)NC(=O)[C@@H](N)CCCNC(=N)N)CSSC[C@H](C(=O)O)NC(=O)[C@@H](C)NC1=O` [PSP VII A1, H-RRKKcwwftaiac-OH] (H-RRKK[dC][dW][dW][dF][dT][dA][dI][dA][dC]-OH; disulfide 5-13): the “% Inhibition” value is listed as 25.2%.

Consider `CC[C@@H](C)[C@H]1NC(=O)[C@@H](CC(=O)O)NC(=O)[C@@H]([C@H](C)O)NC(=O)[C@@H](Cc2ccccc2)NC(=O)[C@@H](Cc2c[nH]c3ccccc23)NC(=O)[C@@H](Cc2c[nH]c3ccccc23)NC(=O)[C@H](NC(=O)[C@H](CCCCN)NC(=O)[C@H](CCCCN)NC(=O)[C@H](CCCNC(=N)N)NC(=O)[C@@H](N)CCCNC(=N)N)CSSC[C@H](C(=O)O)NC(=O)[C@@H](C)NC1=O` [PSP VII A3, H-RRKKcwwftdiac-OH] (H-RRKK[dC][dW][dW][dF][dT][dD][dI][dA][dC]-OH; disulfide 5-13), for which the “% Inhibition” value came to 9.5%.

As for `CC[C@@H](C)[C@H]1NC(=O)[C@@H](CC(N)=O)NC(=O)[C@@H]([C@H](C)O)NC(=O)[C@@H](Cc2ccccc2)NC(=O)[C@@H](Cc2c[nH]c3ccccc23)NC(=O)[C@@H](Cc2c[nH]c3ccccc23)NC(=O)[C@H](NC(=O)[C@H](CCCCN)NC(=O)[C@H](CCCCN)NC(=O)[C@H](CCCNC(=N)N)NC(=O)[C@@H](N)CCCNC(=N)N)CSSC[C@H](C(=O)O)NC(=O)[C@@H](C)NC1=O` [PSP VII A12, H-RRKKcwwftniac-OH] (H-RRKK[dC][dW][dW][dF][dT][dN][dI][dA][dC]-OH; disulfide 5-13), the “% Inhibition” value amounted to 55.2%.

For `CC[C@@H](C)[C@H]1NC(=O)[C@@H](CCC(N)=O)NC(=O)[C@@H]([C@H](C)O)NC(=O)[C@@H](Cc2ccccc2)NC(=O)[C@@H](Cc2c[nH]c3ccccc23)NC(=O)[C@@H](Cc2c[nH]c3ccccc23)NC(=O)[C@H](NC(=O)[C@H](CCCCN)NC(=O)[C@H](CCCCN)NC(=O)[C@H](CCCNC(=N)N)NC(=O)[C@@H](N)CCCNC(=N)N)CSSC[C@H](C(=O)O)NC(=O)[C@@H](C)NC1=O` [PSP VII A14, H-RRKKcwwftqiac-OH] (H-RRKK[dC][dW][dW][dF][dT][dQ][dI][dA][dC]-OH; disulfide 5-13), the “% Inhibition” value worked out at 21.9%.

On to `CC[C@@H](C)[C@H]1NC(=O)[C@@H]([C@H](C)O)NC(=O)[C@@H](Cc2ccccc2)NC(=O)[C@@H](Cc2c[nH]c3ccccc23)NC(=O)[C@@H](Cc2c[nH]c3ccccc23)NC(=O)[C@H](NC(=O)[C@H](CCCCN)NC(=O)[C@H](CCCCN)NC(=O)[C@H](CCCNC(=N)N)NC(=O)[C@@H](N)CCCNC(=N)N)CSSC[C@H](C(=O)O)NC(=O)[C@@H](C)NC(=O)[C@@H]([C@H](C)CC)NC1=O` [PSP VII A8, H-RRKKcwwftiiac-OH] (H-RRKK[dC][dW][dW][dF][dT][dI][dI][dA][dC]-OH; disulfide 5-13), for which the “% Inhibition” value amounted to 84.8%.

As to `CC[C@@H](C)[C@H]1NC(=O)[C@@H](Cc2c[nH]cn2)NC(=O)[C@@H]([C@H](C)O)NC(=O)[C@@H](Cc2ccccc2)NC(=O)[C@@H](Cc2c[nH]c3ccccc23)NC(=O)[C@@H](Cc2c[nH]c3ccccc23)NC(=O)[C@H](NC(=O)[C@H](CCCCN)NC(=O)[C@H](CCCCN)NC(=O)[C@H](CCCNC(=N)N)NC(=O)[C@@H](N)CCCNC(=N)N)CSSC[C@H](C(=O)O)NC(=O)[C@@H](C)NC1=O` [PSP VII A7, H-RRKKcwwfthiac-OH] (H-RRKK[dC][dW][dW][dF][dT][dH][dI][dA][dC]-OH; disulfide 5-13), the “% Inhibition” value amounted to 47.1%.

As to `CC[C@@H](C)[C@H]1NC(=O)[C@@H](CCCCN)NC(=O)[C@@H]([C@H](C)O)NC(=O)[C@@H](Cc2ccccc2)NC(=O)[C@@H](Cc2c[nH]c3ccccc23)NC(=O)[C@@H](Cc2c[nH]c3ccccc23)NC(=O)[C@H](NC(=O)[C@H](CCCCN)NC(=O)[C@H](CCCCN)NC(=O)[C@H](CCCNC(=N)N)NC(=O)[C@@H](N)CCCNC(=N)N)CSSC[C@H](C(=O)O)NC(=O)[C@@H](C)NC1=O` [PSP VII A9, H-RRKKcwwftkiac-OH] (H-RRKK[dC][dW][dW][dF][dT][dK][dI][dA][dC]-OH; disulfide 5-13), the “% Inhibition” value was found to be 17.4%.

`CC[C@@H](C)[C@H]1NC(=O)[C@@H](CCCNC(=N)N)NC(=O)[C@@H]([C@H](C)O)NC(=O)[C@@H](Cc2ccccc2)NC(=O)[C@@H](Cc2c[nH]c3ccccc23)NC(=O)[C@@H](Cc2c[nH]c3ccccc23)NC(=O)[C@H](NC(=O)[C@H](CCCCN)NC(=O)[C@H](CCCCN)NC(=O)[C@H](CCCNC(=N)N)NC(=O)[C@@H](N)CCCNC(=N)N)CSSC[C@H](C(=O)O)NC(=O)[C@@H](C)NC1=O` [PSP VII A15, H-RRKKcwwftriac-OH] (H-RRKK[dC][dW][dW][dF][dT][dR][dI][dA][dC]-OH; disulfide 5-13): the “% Inhibition” value worked out at 39.1%.

For `CC[C@@H](C)[C@H]1NC(=O)[C@@H](CC(C)C)NC(=O)[C@@H]([C@H](C)O)NC(=O)[C@@H](Cc2ccccc2)NC(=O)[C@@H](Cc2c[nH]c3ccccc23)NC(=O)[C@@H](Cc2c[nH]c3ccccc23)NC(=O)[C@H](NC(=O)[C@H](CCCCN)NC(=O)[C@H](CCCCN)NC(=O)[C@H](CCCNC(=N)N)NC(=O)[C@@H](N)CCCNC(=N)N)CSSC[C@H](C(=O)O)NC(=O)[C@@H](C)NC1=O` [PSP VII A10, H-RRKKcwwftliac-OH] (H-RRKK[dC][dW][dW][dF][dT][dL][dI][dA][dC]-OH; disulfide 5-13), the “% Inhibition” value turned out to be 35.7%.

Take `CC[C@@H](C)[C@H]1NC(=O)[C@@H](CS)NC(=O)[C@@H]([C@H](C)O)NC(=O)[C@@H](Cc2ccccc2)NC(=O)[C@@H](Cc2c[nH]c3ccccc23)NC(=O)[C@@H](Cc2c[nH]c3ccccc23)NC(=O)[C@H](NC(=O)[C@H](CCCCN)NC(=O)[C@H](CCCCN)NC(=O)[C@H](CCCNC(=N)N)NC(=O)[C@@H](N)CCCNC(=N)N)CSSC[C@H](C(=O)O)NC(=O)[C@@H](C)NC1=O` [PSP VII A2, H-RRKKcwwftciac-OH] (H-RRKK[dC][dW][dW][dF][dT][dC][dI][dA][dC]-OH; disulfide 5-13): the “% Inhibition” value was determined as 11.9%.

`CC[C@@H](C)[C@H]1NC(=O)[C@@H](CCC(=O)O)NC(=O)[C@@H]([C@H](C)O)NC(=O)[C@@H](Cc2ccccc2)NC(=O)[C@@H](Cc2c[nH]c3ccccc23)NC(=O)[C@@H](Cc2c[nH]c3ccccc23)NC(=O)[C@H](NC(=O)[C@H](CCCCN)NC(=O)[C@H](CCCCN)NC(=O)[C@H](CCCNC(=N)N)NC(=O)[C@@H](N)CCCNC(=N)N)CSSC[C@H](C(=O)O)NC(=O)[C@@H](C)NC1=O` [PSP VII A4, H-RRKKcwwfteiac-OH] (H-RRKK[dC][dW][dW][dF][dT][dE][dI][dA][dC]-OH; disulfide 5-13): the “% Inhibition” value is on record as 3.8%.

Regarding `CC[C@@H](C)[C@H]1NC(=O)[C@@H](CCSC)NC(=O)[C@@H]([C@H](C)O)NC(=O)[C@@H](Cc2ccccc2)NC(=O)[C@@H](Cc2c[nH]c3ccccc23)NC(=O)[C@@H](Cc2c[nH]c3ccccc23)NC(=O)[C@H](NC(=O)[C@H](CCCCN)NC(=O)[C@H](CCCCN)NC(=O)[C@H](CCCNC(=N)N)NC(=O)[C@@H](N)CCCNC(=N)N)CSSC[C@H](C(=O)O)NC(=O)[C@@H](C)NC1=O` [PSP VII A11, H-RRKKcwwftmiac-OH] (H-RRKK[dC][dW][dW][dF][dT][dM][dI][dA][dC]-OH; disulfide 5-13), the “% Inhibition” value is 9.8%.

Turning to `CC[C@@H](C)[C@H]1NC(=O)[C@H]2CCCN2C(=O)[C@@H]([C@H](C)O)NC(=O)[C@@H](Cc2ccccc2)NC(=O)[C@@H](Cc2c[nH]c3ccccc23)NC(=O)[C@@H](Cc2c[nH]c3ccccc23)NC(=O)[C@H](NC(=O)[C@H](CCCCN)NC(=O)[C@H](CCCCN)NC(=O)[C@H](CCCNC(=N)N)NC(=O)[C@@H](N)CCCNC(=N)N)CSSC[C@H](C(=O)O)NC(=O)[C@@H](C)NC1=O` [PSP VII A13, H-RRKKcwwftpiac-OH] (H-RRKK[dC][dW][dW][dF][dT][dP][dI][dA][dC]-OH; disulfide 5-13), the “% Inhibition” value was found to be 41.9%.

With `CC[C@@H](C)[C@H]1NC(=O)CNC(=O)[C@@H]([C@H](C)O)NC(=O)[C@@H](Cc2ccccc2)NC(=O)[C@@H](Cc2c[nH]c3ccccc23)NC(=O)[C@@H](Cc2c[nH]c3ccccc23)NC(=O)[C@H](NC(=O)[C@H](CCCCN)NC(=O)[C@H](CCCCN)NC(=O)[C@H](CCCNC(=N)N)NC(=O)[C@@H](N)CCCNC(=N)N)CSSC[C@H](C(=O)O)NC(=O)[C@@H](C)NC1=O` [PSP VII A5, H-RRKKcwwftGiac-OH] (H-RRKK[dC][dW][dW][dF][dT]G[dI][dA][dC]-OH; disulfide 5-13), the “% Inhibition” value worked out at 9.5%.

The same test, now with this note: A1/Malaysia/302/1954, 48 h, 500 μM.
As to `CC[C@@H](C)[C@H]1NC(=O)[C@@H](Cc2ccccc2)NC(=O)[C@@H](CCCNC(=N)N)NC(=O)[C@@H](CO)NC(=O)[C@@H](CS)NC(=O)[C@@H]([C@H](C)O)NC(=O)[C@H](NC(=O)[C@@H](CCCCN)NC(=O)[C@@H](CCCCN)NC(=O)[C@@H](CCCNC(=N)N)NC(=O)[C@H](N)CCCNC(=N)N)CSSC[C@H](C(=O)O)NC(=O)[C@@H](CC(N)=O)NC1=O` [PSP II A2, H-rrkkctcsrfinc-OH] (H-[dR][dR][dK][dK][dC][dT][dC][dS][dR][dF][dI][dN][dC]-OH; disulfide 5-13), the “% inhibition H1N1” value is listed as 1.7%.

In the case of `CSCC[C@H]1NC(=O)[C@@H](Cc2ccccc2)NC(=O)[C@@H](CCCNC(=N)N)NC(=O)[C@@H](CO)NC(=O)[C@@H](CCCCN)NC(=O)[C@@H]([C@H](C)O)NC(=O)[C@H](N)CSSC[C@H](C(=O)O)NC(=O)[C@@H](CC(N)=O)NC1=O` [PSP 11, H-ctksrfmnc-OH] (H-[dC][dT][dK][dS][dR][dF][dM][dN][dC]-OH; disulfide 1-9), the “% inhibition H1N1” value was determined as 5.8%.
